# Where “and” joins values, the source holds several entries; their conditions need not be identical. Identical values can stand only once. Like-named read-outs stand apart in the source and are kept apart here.
# Columns and labels:
# kidneys [1] = assay: Kidney protection / 68Ga-DOTATATE uptake in the kidneys, biodistribution studies in mice; assay type: in vivo; details: Amifostine alone at a dose of 0.63 mg/ml, co-administrated with 68Ga-DOTATATE
# Protocol: The first i.v. injection of the composition may be scheduled 30 min prior to 68Ga-DOTATATE administration, while the next two injections may be performed at 15 min and 60 min, respectively, after the radiopeptide administration.
# Kidney protection effects of Lysine-Arginine (12.4 mg/ml and 12.5 mg/ml, respectively) and commercially available Clinisol® and Gelofusine co-injected with ^68Ga-DOTATATE (40 uCi) are determined based on biodistribution studies in mice. Lysine-Arginine, Clinisol® and Gelofusine solutions were used as positive controls to determine the efficacies of compositions in accordance with embodiments of the invention.
# Mice (n=5/group, male 6-8 weeks old) were given tail intravenous injection (200 ul) of respective solutions, 30 min prior to the administration of ^68Ga-DOTATATE, followed by further injections at 15 min and 1 hr post injection. An example of application schedule is illustrated in FIG. 1.
# Mice were then sacrificed by CO2 asphyxiation, and kidneys were collected to determine the amounts of radiation absorbed, which are then compared to the total injected radioactive doses.
# Mice (n=5/group, male 6-8 weeks old) were given tail intravenous injection (200 ul) of respective solutions, 30 min prior to the administration ^68Ga-DOTATATE, followed by further injections 15 min and 1 hr post injection, as described in Example 1.
# kidneys [2] = details: rats, intravenous co-injection of 400 mg/kg with 111In-DTPA-octretide; cited from earlier work
# kidneys [3] = details: patients, 111In-DTPA-octretreotide, cited from earlier work
smiles,measurement,setting,value
NCCCNCCSP(=O)(O)O [Amifostine],"kidney protection, Amifostine used alone",kidneys [1],12.24% and 12.2%
NCCCC[C@H](N)C(=O)O [L-Lysine],kidney protection,kidneys [2],40%
NCCCC[C@H](N)C(=O)O [lysine],kidney protection,kidneys [3]; 25 g of lysine,17%±9%
same,kidney protection,kidneys [3]; infusion of 75 g of lysine,44%±11%

# — patent publication US20160143926A1, “COMPOSITIONS AND METHODS FOR THE PREPARATION OF KIDNEY PROTECTIVE AGENTS COMPRISING AMIFOSTINE AND AMINO ACIDS” (priority 2013, published 2016)
